# Laboratory results reported in ChEMBL document CHEMBL3396986, “Novel β-amyloid aggregation inhibitors possessing a turn mimic” (Bioorg Med Chem Lett, 2015).
# Calls of active or inactive are those of the source. No cut-off for these calls is given here. *1 amine or outer side, *2 acyl side, *3 side chain or, on linkers, in order; H or OH if unused. Where a SMILES comes first, the peptide text is derived from it. [ ]: non-standard residue; d: D form. X1 = O=C(CCc1cccc2c1oc1c(CCN[*:1])cccc12)[*:2]; PEG8 = NCCOCCOCCOCCOCCOCCOCCOCCOCCC(=O)O; Met(O) = CS(=O)CC[C@H](N)C(=O)O
# Key:
# [1] = target: Amyloid-beta precursor protein (Homo sapiens) (UniProt P05067); test: Inhibition of pH-click Amyloid beta (1 to 42) (unknown origin) aggregation after 24 hrs by Thioflavin-T fluorescence assay; set-up: concentration or dose not given beside the values; settings: concentration not given here
# [2] = target: Amyloid-beta precursor protein (Homo sapiens) (UniProt P05067); test: Inhibition of pH-click Amyloid beta (1 to 42) (unknown origin) aggregation after 48 hrs by Thioflavin-T fluorescence assay; set-up: concentration or dose not given beside the values; settings: concentration not given here
# [3] = target: Amyloid-beta precursor protein (Homo sapiens) (UniProt P05067); test: Inhibition of authentic Amyloid beta (1 to 42) (unknown origin) aggregation 6 to 48 hrs by Thioflavin-T fluorescence assay
# [4] = target: Amyloid-beta precursor protein (Homo sapiens) (UniProt P05067); test: Inhibition of pH-click Amyloid beta (1 to 42) (unknown origin) aggregation 6 to 48 hrs by Thioflavin-T fluorescence assay
# Amyloid-beta precursor protein (Homo sapiens), sequence (P05067 whole entry): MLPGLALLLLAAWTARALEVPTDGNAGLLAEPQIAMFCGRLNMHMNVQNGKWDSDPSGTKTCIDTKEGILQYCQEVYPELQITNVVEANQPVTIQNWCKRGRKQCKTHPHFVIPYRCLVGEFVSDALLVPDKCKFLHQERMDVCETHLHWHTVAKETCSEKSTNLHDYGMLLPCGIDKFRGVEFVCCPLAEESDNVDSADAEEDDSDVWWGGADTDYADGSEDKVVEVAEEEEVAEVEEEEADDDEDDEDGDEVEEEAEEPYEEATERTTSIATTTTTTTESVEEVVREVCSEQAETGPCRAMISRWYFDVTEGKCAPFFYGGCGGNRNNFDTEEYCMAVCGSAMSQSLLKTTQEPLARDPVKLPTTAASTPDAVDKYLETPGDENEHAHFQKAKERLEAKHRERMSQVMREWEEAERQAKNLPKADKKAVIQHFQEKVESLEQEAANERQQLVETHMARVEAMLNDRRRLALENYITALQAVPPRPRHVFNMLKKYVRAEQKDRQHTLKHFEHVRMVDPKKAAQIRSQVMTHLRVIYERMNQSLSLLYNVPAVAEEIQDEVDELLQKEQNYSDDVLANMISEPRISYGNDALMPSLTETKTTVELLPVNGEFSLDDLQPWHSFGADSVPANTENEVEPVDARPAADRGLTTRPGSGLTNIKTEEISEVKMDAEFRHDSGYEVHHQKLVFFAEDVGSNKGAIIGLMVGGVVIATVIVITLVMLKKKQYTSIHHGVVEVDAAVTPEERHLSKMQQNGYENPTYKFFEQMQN
inhibition [1] [%],inhibition [2] [%],inhibition [3],inhibition [4],Compound
12,< 5,–,–,CC[C@H](C)[C@H](NC(=O)CCc1cccc2c1oc1c(CCNC(=O)[C@H](CCCCN)NC(=O)[C@H](CC(N)=O)NC(=O)[C@H](CO)NC(=O)CN)cccc12)C(=O)NCC(=O)N[C@@H](CC(C)C)C(=O)N[C@@H](CC[S+](C)[O-])C(=O)NCCOCCOCCOCCOCCOCCOCCOCCOCCC(=O)O (some centres undefined) (H-GSNK[X1]IGL[Met(O)][PEG8]-OH)
–,–,Active,Active,CC(C)C[C@@H](NC(=O)[C@H](N)CCCCN)C(=O)N[C@@H](C(=O)N[C@H](Cc1ccccc1)C(=O)N[C@H](Cc1ccccc1)C(=O)N[C@H](C)C(=O)O)C(C)C (H-[dK][dL][dV][dF][dF][dA]-OH)
10,< 5,–,–,CC[C@H](C)[C@H](NC(=O)[C@H](C)NC(=O)CCc1cccc2c1oc1c(CCNC(=O)[C@H](CO)NC(=O)CNC(=O)[C@@H](NC(=O)[C@H](CC(=O)O)NC(=O)CCOCCOCCOCCOCCOCCOCCOCCOCCN)C(C)C)cccc12)C(=O)N[C@H](C(=O)NCC(=O)O)[C@@H](C)CC (H-[PEG8]DVGS[X1]AIIG-OH)
13,< 5,–,–,CC[C@H](C)[C@H](NC(=O)[C@@H](NC(=O)[C@H](C)NC(=O)CNC(=O)CCc1cccc2c1oc1c(CCNC(=O)CNC(=O)[C@@H](NC(=O)[C@H](CC(=O)O)NC(=O)[C@H](CCC(=O)O)NC(=O)CCOCCOCCOCCOCCOCCOCCOCCOCCN)C(C)C)cccc12)[C@@H](C)CC)C(=O)O (H-[PEG8]EDVG[X1]GAII-OH)
49,39,–,–,CC[C@H](C)[C@H](NC(=O)CCc1cccc2c1oc1c(CCNC(=O)[C@H](CC(N)=O)NC(=O)[C@H](CO)NC(=O)CNC(=O)[C@@H](N)C(C)C)cccc12)C(=O)N[C@H](C(=O)NCC(=O)N[C@@H](CC(C)C)C(=O)NCCOCCOCCOCCOCCOCCOCCOCCOCCC(=O)O)[C@@H](C)CC (H-VGSN[X1]IIGL[PEG8]-OH)
56,56,–,–,CC[C@H](C)[C@H](NC(=O)CCc1cccc2c1oc1c(CCNC(=O)[C@H](CC(N)=O)NC(=O)[C@H](CO)NC(=O)CNC(=O)[C@@H](NC(=O)CCOCCOCCOCCOCCOCCOCCOCCOCCN)C(C)C)cccc12)C(=O)N[C@H](C(=O)NCC(=O)N[C@@H](CC(C)C)C(=O)O)[C@@H](C)CC (H-[PEG8]VGSN[X1]IIGL-OH)
9,< 5,–,–,CC[C@H](C)[C@H](NC(=O)CCc1cccc2c1oc1c(CCNC(=O)[C@H](CCCCN)NC(=O)[C@H](CC(N)=O)NC(=O)[C@H](CO)NC(=O)CNC(=O)CCOCCOCCOCCOCCOCCOCCOCCOCCN)cccc12)C(=O)NCC(=O)N[C@@H](CC(C)C)C(=O)N[C@@H](CC[S+](C)[O-])C(=O)O (some centres undefined) (H-[PEG8]GSNK[X1]IGL[Met(O)]-OH)
7,< 5,–,–,CC(C)C[C@H](NC(=O)CNC(=O)CCc1cccc2c1oc1c(CCNC(=O)CNC(=O)[C@H](CCCCN)NC(=O)[C@H](CC(N)=O)NC(=O)[C@@H](N)CO)cccc12)C(=O)N[C@@H](CC[S+](C)[O-])C(=O)N[C@H](C(=O)NCCOCCOCCOCCOCCOCCOCCOCCOCCC(=O)O)C(C)C (some centres undefined) (H-SNKG[X1]GL[Met(O)]V[PEG8]-OH)
–,–,Active,Active,H-KLVFFA-OH
16,20,–,–,CC[C@H](C)[C@H](NC(=O)[C@H](C)NC(=O)CNC(=O)CCc1cccc2c1oc1c(CCNC(=O)CNC(=O)[C@@H](NC(=O)[C@H](CC(=O)O)NC(=O)[C@@H](N)CCC(=O)O)C(C)C)cccc12)C(=O)N[C@H](C(=O)NCCOCCOCCOCCOCCOCCOCCOCCOCCC(=O)O)[C@@H](C)CC (H-EDVG[X1]GAII[PEG8]-OH)
< 5,< 5,–,–,CC[C@H](C)[C@H](NC(=O)[C@H](C)NC(=O)CCc1cccc2c1oc1c(CCNC(=O)[C@H](CO)NC(=O)CNC(=O)[C@@H](NC(=O)[C@@H](N)CC(=O)O)C(C)C)cccc12)C(=O)N[C@H](C(=O)NCC(=O)NCCOCCOCCOCCOCCOCCOCCOCCOCCC(=O)O)[C@@H](C)CC (H-DVGS[X1]AIIG[PEG8]-OH)
13,< 5,–,–,CC(C)C[C@H](NC(=O)CNC(=O)CCc1cccc2c1oc1c(CCNC(=O)CNC(=O)[C@H](CCCCN)NC(=O)[C@H](CC(N)=O)NC(=O)[C@H](CO)NC(=O)CCOCCOCCOCCOCCOCCOCCOCCOCCN)cccc12)C(=O)N[C@@H](CC[S+](C)[O-])C(=O)N[C@H](C(=O)O)C(C)C (some centres undefined) (H-[PEG8]SNKG[X1]GL[Met(O)]V-OH)
